From patent US20170334899A1, “AMINO-SUBSTITUTED ISOTHIAZOLES” (Bayer Pharma Aktiengesellschaft, priority 2014, published 2017)

Columns and labels:
Type in all cases: cell-based
NCI-H460 = assay: Proliferation assay (crystal violet), NCI-H460; settings: Homo sapiens, 96 h; NCI-H460 cells; 4 days incubation; crystal violet staining; read-out: IC50 inhibition of proliferation, NCI-H460
Procedure: (§1) Cultivated tumor cells (cells were ordered from ATCC, except HeLa-MaTu and HeLa-MaTu-ADR, which were ordered from EPO-GmbH, Berlin) were plated at a density of 1000 to 5000 cells/well, depending on the growth rate of the respective cell line, in a 96-well multititer plate in 200 μL of their respective growth medium supplemented 10% fetal calf serum. After 24 hours, the cells of one plate (zero-point plate) were stained with crystal violet (see below), while the medium of the other plates was replaced by fresh culture medium (200 μl), to which the test substances were added in various concentrations (0 μM, as well as in the range of 0.001-10 μM; the final concentration of the solvent dimethyl sulfoxide was 0.5%). The cells were incubated for 4 days in the presence of test substances. Cell proliferation was determined by staining the cells with crystal violet: the cells were fixed by adding 20 μl/measuring point of an 11% glutaric aldehyde solution for 15 minutes at room temperature. After three washing cycles of the fixed cells with water, the plates were dried at room temperature. The cells were stained by adding 100 μl/measuring point of a 0.1% crystal violet solution (pH 3.0). After three washing cycles of the stained cells with water, the plates were dried at room temperature. The dye was dissolved by adding 100 μl/measuring point of a 10% acetic acid solution. Absorbtion was determined by photometry at a wavelength of 595 nm. The change of cell number, in percent, was calculated by normalization of the measured values to the aborbtion values of the zero-point plate (=0%) and the absorbtion of the untreated (0 μm) cells (=100%). The IC50 values were determined by means of a 4 parameter fit.

HeLa-MaTu-ADR = assay: Proliferation assay (crystal violet), HeLa-MaTu-ADR; settings: 96 h; HeLa-MaTu-ADR cells; 4 days incubation; crystal violet staining; read-out: IC50 inhibition of proliferation, HeLa-MaTu-ADR
Procedure: as §1

B16F10 = assay: Proliferation assay (crystal violet), B16F10; settings: Mus musculus, B16-F10, 96 h; B16F10 cells; 4 days incubation; crystal violet staining; read-out: IC50 inhibition of proliferation, B16F10
Procedure: as §1

Caco-2 = assay: Proliferation assay (crystal violet), Caco-2; settings: Homo sapiens, 96 h; Caco-2 cells; 4 days incubation; crystal violet staining; read-out: IC50 inhibition of proliferation, Caco2
Procedure: as §1

DU145 = assay: Proliferation assay (crystal violet), DU145; settings: Homo sapiens, DU-145, 96 h; DU145 cells; 4 days incubation; crystal violet staining; read-out: IC50 inhibition of proliferation, DU145
Procedure: as §1

Row | IC50 (NCI-H460) [µM] | IC50 (HeLa-MaTu-ADR) [µM] | IC50 (B16F10) [µM] | IC50 (Caco-2) [µM] | IC50 (DU145) [µM] | Structure (SMILES)
1 | 0.64 | 0.38 | 0.55 | 0.27 | 0.91 | Cc1nsc(Nc2cnc3ccccc3n2)c1C(=O)Nc1ccc(OC2CCN(C(=O)OC(C)(C)C)CC2)nc1 [Example 18, tert-Butyl 4-{[5-({[3-methyl-5-(quinoxalin-2-ylamino)-1,2-thiazol-4-yl]carbonyl}-amino)pyridin-2-yl]oxy}piperidine-1-carboxylate]
2 | 0.15 | 0.29 | 0.29 | 0.24 | 0.72 | Cc1nsc(Nc2cncc(C(F)(F)F)n2)c1C(=O)Nc1ccc(OC2CCN(CC(F)(F)F)CC2)nc1 [Example 16, 3-Methyl-N-(6-{[1-(2,2,2-trifluoroethyl)piperidin-4-yl]oxy}pyridin-3-yl)-5-{[6-(trifluoromethyl)pyrazin-2-yl]amino}-1,2-thiazole-4-carboxamide]
